“And” between values parts separate entries of the source, which are not always exact repeats. Equal entries are not always repeated.
Test: xn = mol fraction of the nth substance listed
Settings: 100 kPa

CCOCC[n+]1ccn(C)c1.C[C@@H](O)[C@H](N)C(=O)[O-] + O
Settings	viscosity
298.15 K, x1 = 0.619	1040 mPa·s
313.15 K, x1 = 0.3647	245 mPa·s
323.15 K, x1 = 0.3158	118.5 mPa·s
323.15 K, x1 = 0.3647	125.5 mPa·s
328.15 K, x1 = 0.3158	96.1 mPa·s and 99.5 mPa·s
328.15 K, x1 = 0.5081	106 mPa·s
328.15 K, x1 = 1	115.4 mPa·s

CCCCn1cc[n+](CCOCCOCCOCCOCC[n+]2ccn(CCCC)c2)c1.N#C[N-]C#N.N#C[N-]C#N + CC[n+]1ccn(C)c1.N#C[N-]C#N + O=S(=O)([N-]S(=O)(=O)C(F)(F)F)C(F)(F)F.[Li+]
x1 = 0.2104, x2 = 0.6943
Settings	electrical conductivity [S/m]
298 K	0.471
303 K	0.549
313 K	0.79
323 K	1.05
333 K	1.37
343 K	1.67

C[N+](C)(C)CCO.O=C([O-])c1cccnc1 + O
viscosity [mPa·s]
Settings	x1 = 0.0008779	x1 = 0.001474	x1 = 0.00202	x1 = 0.002696	x1 = 0.00365	x1 = 0.005797
293.15 K	1.041	1.065	1.087	1.115	1.153	1.238
298.15 K	0.928	0.949	0.968	0.992	1.025	1.097
303.15 K	0.833	0.852	0.869	0.889	0.918	0.98
308.15 K	0.752	0.769	0.784	0.802	0.827	0.88
313.15 K	0.685	0.7	0.713	0.729	0.75	0.796

Cn1cc[n+](CCO)c1.[Cl-] + O
Settings	electrical conductivity, 293.15 K [S/m]	electrical conductivity, 298.15 K [S/m]	electrical conductivity, 303.15 K [S/m]	electrical conductivity, 308.15 K [S/m]	electrical conductivity, 313.15 K [S/m]	viscosity, 293.15 K [mPa·s]	viscosity, 298.15 K [mPa·s]	viscosity, 303.15 K [mPa·s]	viscosity, 308.15 K [mPa·s]	viscosity, 313.15 K [mPa·s]
x1 = 3.478e-05	0.0241	0.0281	0.0319	0.036	0.04	–	–	–	–	–
x1 = 5.784e-05	0.0382	0.0443	0.0496	0.056	0.062	–	–	–	–	–
x1 = 9.73e-05	0.0597	0.0693	0.0776	0.0866	0.095	1.015	0.904	0.815	0.738	0.676
x1 = 0.0001191	0.0701	0.082	0.0913	0.1	0.11	–	–	–	–	–
x1 = 0.0001798	0.0949	0.111	0.123	0.133	0.146	–	–	–	–	–
x1 = 0.0002349	0.117	0.136	0.151	0.163	0.178	1.023	0.912	0.826	0.75	0.69
x1 = 0.0002827	0.133	0.154	0.171	0.183	0.2	1.025	0.914	0.829	0.753	0.694
x1 = 0.0003387	0.15	0.173	0.192	0.209	0.224	–	–	–	–	–
x1 = 0.0003943	0.165	0.191	0.214	0.228	0.248	1.029	0.92	0.835	0.76	0.702
x1 = 0.000458	–	–	–	–	–	1.032	0.922	0.838	0.764	0.706
x1 = 0.0005686	–	–	–	–	–	1.036	0.926	0.844	0.77	0.713
x1 = 0.0007379	–	–	–	–	–	1.041	0.933	0.851	0.778	0.722
x1 = 0.0009513	–	–	–	–	–	1.048	0.94	0.86	0.787	0.732
x1 = 0.001272	–	–	–	–	–	1.056	0.949	0.872	0.799	0.746
x1 = 0.001562	–	–	–	–	–	1.063	0.957	0.882	0.809	0.757

CC(C)C[C@H](N)C(=O)O + CCCC[n+]1ccn(C)c1.F[B-](F)(F)F + O
viscosity [mPa·s]
Settings	293.15 K	298.15 K	303.15 K	308.15 K	313.15 K	318.15 K
x1 = 0.0002738, x2 = 0	1.013	0.9	0.807	0.729	0.663	0.605
x1 = 0.0002786, x2 = 0.0003728	1.044	0.93	0.848	0.763	0.705	0.65
x1 = 0.0002797, x2 = 0.0007255	1.076	0.964	0.881	0.802	0.749	0.694
x1 = 0.0002864, x2 = 0.001099	1.109	0.998	0.919	0.845	0.794	0.74
x1 = 0.0004577, x2 = 0.0007254	1.081	0.97	0.887	0.808	0.754	0.698
x1 = 0.0004593, x2 = 0	1.017	0.905	0.811	0.733	0.667	0.608
x1 = 0.0004597, x2 = 0.001099	1.115	1.004	0.925	0.85	0.8	0.746
x1 = 0.0004649, x2 = 0.0003727	1.049	0.935	0.852	0.768	0.709	0.654
x1 = 0.0006294, x2 = 0.0003726	1.054	0.94	0.857	0.772	0.714	0.659
x1 = 0.0006321, x2 = 0	1.022	0.909	0.815	0.736	0.67	0.612
x1 = 0.0006374, x2 = 0.0007252	1.086	0.975	0.892	0.812	0.759	0.704
x1 = 0.0006474, x2 = 0.001099	1.121	1.01	0.931	0.856	0.805	0.751
x1 = 0.0008066, x2 = 0	1.026	0.913	0.819	0.74	0.674	0.616
x1 = 0.0008173, x2 = 0.0003726	1.059	0.945	0.862	0.777	0.718	0.663
x1 = 0.0008279, x2 = 0.0007251	1.092	0.98	0.897	0.817	0.764	0.708
x1 = 0.0008314, x2 = 0.001099	1.127	1.016	0.936	0.861	0.81	0.756
x1 = 0.0009955, x2 = 0	1.031	0.917	0.823	0.744	0.678	0.619
x1 = 0.001003, x2 = 0.0003725	1.064	0.949	0.866	0.781	0.722	0.667
x1 = 0.001004, x2 = 0.000725	1.097	0.985	0.902	0.822	0.768	0.712
x1 = 0.00101, x2 = 0.001099	1.132	1.021	0.941	0.866	0.815	0.761
x1 = 0.001168, x2 = 0	1.035	0.921	0.826	0.747	0.681	0.622
x1 = 0.001172, x2 = 0.0007248	1.102	0.99	0.906	0.826	0.772	0.716
x1 = 0.001177, x2 = 0.0003724	1.069	0.954	0.871	0.785	0.726	0.671
x1 = 0.001183, x2 = 0.001099	1.138	1.026	0.946	0.871	0.82	0.766
x1 = 0.00135, x2 = 0.0003724	1.074	0.959	0.875	0.789	0.73	0.675
x1 = 0.001357, x2 = 0	1.04	0.925	0.83	0.751	0.684	0.625
x1 = 0.001369, x2 = 0.001098	1.144	1.031	0.951	0.876	0.825	0.771
x1 = 0.00137, x2 = 0.0007247	1.108	0.995	0.911	0.831	0.777	0.721
x1 = 0.001535, x2 = 0	1.044	0.929	0.834	0.755	0.688	0.629
x1 = 0.001541, x2 = 0.0003723	1.08	0.963	0.88	0.794	0.734	0.679
x1 = 0.001554, x2 = 0.001098	1.15	1.037	0.957	0.881	0.83	0.776
x1 = 0.001557, x2 = 0.0007246	1.113	0.999	0.915	0.835	0.781	0.725
x1 = 0.00172, x2 = 0	1.048	0.933	0.838	0.758	0.691	0.632
x1 = 0.00172, x2 = 0.0003722	1.085	0.968	0.884	0.797	0.738	0.682
x1 = 0.00172, x2 = 0.0007244	1.117	1.003	0.92	0.839	0.785	0.729
x1 = 0.001727, x2 = 0.001098	1.156	1.042	0.962	0.886	0.835	0.781

— the CheMixHub ionic liquid set
